target: recombinant Mcl-1 (residues 172-327) (Homo sapiens (Human), UniProt Q07820); assay: Bak peptide fluorescence polarization anisotropy competition assay, Mcl-1; type: binding; settings: Table 2, Ki range; FITC-Bak peptide 10 nM, Mcl-1 14 nM; read-out: Ki for inhibition of Mcl-1
Sequence (Q07820 172-327): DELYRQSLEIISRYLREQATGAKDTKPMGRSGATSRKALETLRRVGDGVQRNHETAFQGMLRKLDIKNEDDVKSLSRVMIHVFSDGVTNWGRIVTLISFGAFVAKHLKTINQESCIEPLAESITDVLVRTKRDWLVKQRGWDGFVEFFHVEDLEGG

Structure (SMILES)	Ki
Cc1cc(OCCCc2c(C(=O)NS(C)(=O)=O)[nH]c3cccc(Cl)c23)ccc1Cl [Example 50, 4-chloro-3-(3-(4-chloro-3-methylphenoxy)propyl)-N-(methylsulfonyl)-1H-indole-2-carboxamide]	≤ 100 nM
COc1nccc(C)c1-c1cccc2c(CCCOc3cc(C)c(Cl)c(C)c3)c(C(=O)NS(=O)(=O)c3ccccc3)[nH]c12 [Example 301, 3-(3-(4-chloro-3,5-dimethylphenoxy)propyl)-7-(2-methoxy-4-methylpyridin-3-yl)-N-(phenylsulfonyl)-1H-indole-2-carboxamide]	≤ 100 nM
Cc1ccncc1-c1cccc2c(CCCOc3cc(C)c(Cl)c(C)c3)c(C(=O)NS(=O)(=O)c3ccccc3)[nH]c12 [Example 89, 3-(3-(4-chloro-3,5-dimethylphenoxy)propyl)-7-(4-methylpyridin-3-yl)-N-(phenylsulfonyl)-1H-indole-2-carboxamide]	≤ 100 nM

More lines, now with the values ahead:

Ki	Structure (SMILES)
≤ 100 nM	Cc1cc(OCCCc2c(C(=O)NS(=O)(=O)CCNC(=O)c3cccn3C)[nH]c3ccccc23)cc(C)c1Cl [Example 170, 3-(3-(4-chloro-3,5-dimethylphenoxy)propyl)-N-((2-(1-methyl-1H-pyrrole-2-carboxamido)ethyl)sulfonyl)-1H-indole-2-carboxamide]
≤ 100 nM	Cc1cc(OCCCc2c(C(=O)NS(=O)(=O)CCNC(=O)c3cccc(C(F)(F)F)c3)[nH]c3cc(Cl)ccc23)cc(C)c1Cl [Example 255, 6-chloro-3-(3-(4-chloro-3,5-dimethylphenoxy)propyl)-N-((2-(3-(trifluoromethyl)benzamido)ethyl)sulfonyl)-1H-indole-2-carboxamide]
≤ 100 nM	Cc1cc(OCCCc2c(C(=O)NS(=O)(=O)CCNC(=O)CCc3ccccc3)[nH]c3cc(Cl)ccc23)cc(C)c1Cl [Example 230, 6-chloro-3-(3-(4-chloro-3,5-dimethylphenoxy)propyl)-N-((2-(3-phenylpropanamido)ethyl)sulfonyl)-1H-indole-2-carboxamide]
≤ 100 nM	CCn1nccc1-c1cccc2c(CCCOc3cc(C)c(Cl)c(C)c3)c(C(=O)NS(=O)(=O)c3ccccc3)[nH]c12 [Example 302, 3-(3-(4-chloro-3,5-dimethylphenoxy)propyl)-7-(1-ethyl-1H-pyrazol-5-yl)-N-(phenylsulfonyl)-1H-indole-2-carboxamide]
≤ 100 nM	Cc1cc(OCCCc2c(C(=O)NS(=O)(=O)CCNC(=O)C(C)C)[nH]c3cc(Cl)ccc23)cc(C)c1Cl [Example 253, 6-chloro-3-(3-(4-chloro-3,5-dimethylphenoxy)propyl)-N-((2-isobutyramidoethyl)sulfonyl)-1H-indole-2-carboxamide]
≤ 100 nM	Cc1cc(OCCCc2c(C(=O)NS(=O)(=O)c3ccc(CO)o3)[nH]c3cc(Cl)ccc23)cc(C)c1Cl [Example 260, -chloro-3-(3-(4-chloro-3,5-dimethylphenoxy)propyl)-N-((5-(hydroxymethyl)furan-2-yl)sulfonyl)-1H-indole-2-carboxamide]

same assay, conditions: read-out: Ki for inhibition of Mcl-1

Structure (SMILES)	Ki
CS(=O)(=O)NC(=O)c1cc2ccccc2n1CCCOc1cccc2ccccc12 [Example 14, N-(methylsulfonyl)-1-(3-(naphthalen-1-yloxy)propyl)-1H-indole-2-carboxamide]	301 to 500 nM
Cc1ccc2c(CCCOc3cccc4ccccc34)c(C(=O)O)sc2c1 [Example 9, 6-methyl-3-(3-(naphthalen-1-yloxy)propyl)benzo[b]thiophene-2-carboxylic acid]	501 to 999 nM
Cc1cc(OCCCc2c(C(=O)NS(=O)(=O)CCNC(=O)c3cccn3Cc3ccccc3)n(Cc3cccnc3)c3cc(Cl)ccc23)cc(C)c1Cl [Example 277, N-((2-(1-benzyl-1H-pyrrole-2-carboxamido)ethyl)sulfonyl)-6-chloro-3-(3-(4-chloro-3,5-dimethylphenoxy)propyl)-1-(pyridin-3-ylmethyl)-1H-indole-2-carboxamide]	301 to 500 nM
Cc1cc(OCCCc2c(C(=O)NS(C)(=O)=O)[nH]c3c(C)c(Br)ccc23)cc(C)c1Cl [Example 120, 6-bromo-3-(3-(4-chloro-3,5-dimethylphenoxy)propyl)-7-methyl-N-(methylsulfonyl)-1H-indole-2-carboxamide]	1000 to 9990 nM
Cc1cc(OCCCc2c(C(=O)NS(=O)(=O)CCNC(=O)C3CCCCC3)n(Cc3cccnc3)c3cc(Cl)ccc23)cc(C)c1Cl [Example 275, 6-chloro-3-(3-(4-chloro-3,5-dimethylphenoxy)propyl)-N-((2-(cyclohexanecarboxamido)ethyl)sulfonyl)-1-(pyridin-3-ylmethyl)-1H-indole-2-carboxamide]	101 to 299 nM
CS(=O)(=O)NC(=O)c1sc2ccccc2c1CCCOc1cccc2ccccc12 [Example 61, N-(methylsulfonyl)-3-(3-(naphthalen-1-yloxy)propyl)benzo[b]thiophene-2-carboxamide]	1000 to 9990 nM
Cc1cc(OCCCc2c(C(=O)NS(=O)(=O)C3CCN(C(=O)c4cc(-c5ccccc5O)n[nH]4)CC3)[nH]c3cc(Cl)ccc23)cc(C)c1Cl [Example 214]	301 to 500 nM
CS(=O)(=O)NC(=O)c1[nH]c2cc(C(F)(F)F)ccc2c1CCCOc1cccc2ccccc12 [Example 79, N-(methylsulfonyl)-3-(3-(naphthalen-1-yloxy)propyl)-6-(trifluoromethyl)-1H-indole-2-carboxamide]	301 to 500 nM
CS(=O)(=O)NC(=O)c1[nH]c2ccccc2c1CCCOc1ccccc1 [Example 30, N-(methylsulfonyl)-3-(3-phenoxypropyl)-1H-indole-2-carboxamide]	10000 to 50000 nM
CS(=O)(=O)NC(=O)c1[nH]c2cc(Cl)ccc2c1CCCOc1cccc2ccccc12 [Example 52, 6-chloro-N-(methylsulfonyl)-3-(3-(naphthalen-1-yloxy)propyl)-1H-indole-2-carboxamide]	101 to 299 nM
CS(=O)(=O)NC(=O)c1[nH]c2ccccc2c1CCCOc1ccc2ccccc2c1 [Example 37, N-(methylsulfonyl)-3-(3-(naphthalen-2-yloxy)propyl)-1H-indole-2-carboxamide]	1000 to 9990 nM
Cc1cc(OCCCc2c(C(=O)NS(=O)(=O)c3cccc4ccccc34)oc3ccccc23)cc(C)c1Cl [Example 28, 3-(3-(4-chloro-3,5-dimethylphenoxy)propyl)-N-(naphthalen-1-ylsulfonyl)benzofuran-2-carboxamide]	1000 to 9990 nM

Results, then the molecule that gave them:

Ki	Structure (SMILES)
101 to 299 nM	Cc1cc(OCCCc2c(C(=O)NS(=O)(=O)CCNC(=O)[C@@H]3Cc4ccccc4N3)[nH]c3ccccc23)cc(C)c1Cl [Example 168, (S)-3-(3-(4-chloro-3,5-dimethylphenoxy)propyl)-N-((2-(indoline-2-carboxamido)ethyl)sulfonyl)-1H-indole-2-carboxamide]
101 to 299 nM	Cc1cc(OCCCc2c(C(=O)NS(=O)(=O)CCNC(=O)c3ccc4cc[nH]c4c3)[nH]c3ccccc23)cc(C)c1Cl [Example 176, N-((2-(1H-indole-6-carboxamido)ethyl)sulfonyl)-3-(3-(4-chloro-3,5-dimethylphenoxy)propyl)-1H-indole-2-carboxamide]
301 to 500 nM	Cc1cc(OCCCc2c(C(=O)NS(=O)(=O)c3ccc(-c4ccccc4)cc3)[nH]c3cc(Cl)ccc23)cc(C)c1Cl [Example 219, N-([1,1′-biphenyl]-4-ylsulfonyl)-6-chloro-3-(3-(4-chloro-3,5-dimethylphenoxy)propyl)-1H-indole-2-carboxamide]
501 to 999 nM	Cc1cc(OCCCc2c(C(=O)NS(C)(=O)=O)[nH]c3ccccc23)cc(C)c1Cl [Example 29, 3-(3-(4-chloro-3,5-dimethylphenoxy)propyl)-N-(methylsulfonyl)-1H-indole-2-carboxamide]
101 to 299 nM	Cc1cc(OCCCc2c(C(=O)NS(=O)(=O)CCNC(=O)c3ccoc3C)[nH]c3ccccc23)cc(C)c1Cl [Example 151, 3-(3-(4-chloro-3,5-dimethylphenoxy)propyl)-N-((2-(2-methylfuran-3-carboxamido)ethyl)sulfonyl)-1H-indole-2-carboxamide]
101 to 299 nM	Cc1cc(OCCCc2c(C(=O)NS(=O)(=O)c3ccccc3)[nH]c3c(-c4cccs4)cccc23)cc(C)c1Cl [Example 95, 3-(3-(4-chloro-3,5-dimethylphenoxy)propyl)-N-(phenylsulfonyl)-7-(thiophen-2-yl)-1H-indole-2-carboxamide]
101 to 299 nM	Cc1cc(OCCCc2c(C(=O)NS(=O)(=O)CCNC(=O)c3cccc(Oc4ccccc4)c3)[nH]c3ccccc23)cc(C)c1Cl [Example 167, 3-(3-(4-chloro-3,5-dimethylphenoxy)propyl)-N-((2-(3-phenoxybenzamido)ethyl)sulfonyl)-1H-indole-2-carboxamide]
101 to 299 nM	Cc1cccc(Cn2cccc2C(=O)NCCS(=O)(=O)NC(=O)c2[nH]c3cc(Cl)ccc3c2CCCOc2cc(C)c(Cl)c(C)c2)c1 [Example 245, 6-chloro-3-(3-(4-chloro-3,5-dimethylphenoxy)propyl)-N-((2-(1-(3-methylbenzyl)-1H-pyrrole-2-carboxamido)ethyl)sulfonyl)-1H-indole-2-carboxamide]
101 to 299 nM	CC(=O)NCCS(=O)(=O)NC(=O)c1[nH]c2cc(Cl)ccc2c1CCCOc1cc(C)c(Cl)c(C)c1 [Example 251, N-((2-acetamidoethyl)sulfonyl)-6-chloro-3-(3-(4-chloro-3,5-dimethylphenoxy)propyl)-1H-indole-2-carboxamide]
301 to 500 nM	Cc1cc(OCCCc2c(C(=O)NS(=O)(=O)CCNC(=O)c3ccccc3F)[nH]c3ccccc23)cc(C)c1Cl [Example 160, 3-(3-(4-chloro-3,5-dimethylphenoxy)propyl)-N-((2-(2-fluorobenzamido)ethyl)sulfonyl)-1H-indole-2-carboxamide]
101 to 299 nM	Cc1cc(OCCCc2c(C(=O)NS(=O)(=O)CCNC(=O)c3cccn3Cc3ccccc3)[nH]c3ccccc23)cc(C)c1Cl [Example 200, N-((2-(1-benzyl-1H-pyrrole-2-carboxamido)ethyl)sulfonyl)-3-(3-(4-chloro-3,5-dimethylphenoxy)propyl)-1H-indole-2-carboxamide]
501 to 999 nM	Cc1cc(OCCCc2c(C(=O)NS(=O)(=O)Cc3ccccc3)sc3ccccc23)cc(C)c1Cl [Example 70, N-(benzylsulfonyl)-3-(3-(4-chloro-3,5-dimethylphenoxy)propyl)benzo[b]thiophene-2-carboxamide]

Source: US10844032B2, “Substituted benzofuran, benzothiophene and indole Mcl-1 inhibitors” (Vanderbilt University, priority 2012, dated 2020)
